Experimental data from patent US10369123B2, “Perk activator for the treatment of neurodegenerative diseases” (DEUTSCHES ZENTRUM FÜR NEURODEGENERATIVE ERKRANKUNGEN E.V. …, priority 2014, dated 2019).
“Also recorded” adds a separate entry of the source.

Molecular target: T1, PERK (Mus musculus, UniProt Q9Z2B5)
T1 construct: from tissue; host or cells: mouse brain (C57BL/6 wild type; whole brain homogenates / frontal cortex)
T1 sequence (Q9Z2B5 29-1114): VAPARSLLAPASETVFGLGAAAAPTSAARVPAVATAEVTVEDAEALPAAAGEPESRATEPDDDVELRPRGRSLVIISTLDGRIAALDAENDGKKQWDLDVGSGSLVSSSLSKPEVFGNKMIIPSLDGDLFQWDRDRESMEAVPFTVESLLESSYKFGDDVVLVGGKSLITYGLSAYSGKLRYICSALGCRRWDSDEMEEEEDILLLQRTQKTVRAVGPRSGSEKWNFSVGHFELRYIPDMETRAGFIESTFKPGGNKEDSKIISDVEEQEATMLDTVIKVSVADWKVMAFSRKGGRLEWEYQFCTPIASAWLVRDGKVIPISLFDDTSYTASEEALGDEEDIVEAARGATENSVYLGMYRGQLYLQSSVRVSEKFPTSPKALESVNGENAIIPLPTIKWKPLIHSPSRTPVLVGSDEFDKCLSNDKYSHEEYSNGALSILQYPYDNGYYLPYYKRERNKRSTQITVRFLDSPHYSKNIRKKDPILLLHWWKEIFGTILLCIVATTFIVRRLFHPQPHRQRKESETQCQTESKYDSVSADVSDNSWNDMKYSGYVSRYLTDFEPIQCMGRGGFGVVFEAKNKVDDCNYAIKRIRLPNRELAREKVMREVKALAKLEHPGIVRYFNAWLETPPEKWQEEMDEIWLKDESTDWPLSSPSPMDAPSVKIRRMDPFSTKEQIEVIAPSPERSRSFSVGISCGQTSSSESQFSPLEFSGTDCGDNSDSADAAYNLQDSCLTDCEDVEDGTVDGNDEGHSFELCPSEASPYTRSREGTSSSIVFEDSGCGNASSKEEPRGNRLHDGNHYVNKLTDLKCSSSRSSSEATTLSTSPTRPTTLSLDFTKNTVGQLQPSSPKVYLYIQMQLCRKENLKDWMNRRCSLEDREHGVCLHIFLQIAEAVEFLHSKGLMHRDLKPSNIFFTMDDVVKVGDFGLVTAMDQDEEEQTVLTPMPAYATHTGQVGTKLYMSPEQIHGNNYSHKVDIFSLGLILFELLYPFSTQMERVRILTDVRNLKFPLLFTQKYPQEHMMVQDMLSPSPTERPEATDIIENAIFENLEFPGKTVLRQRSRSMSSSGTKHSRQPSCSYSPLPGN
Assay: Target engagement: Western blots of whole brain homogenates after intraperitoneal administration
Type: in vivo
Protocol: All animal work was conducted either on CR57BL/6 mice, obtained from Charles River Laboratories, Wilmington, Mass., USA, or on homozygous transgenic mice overexpressing human tau with the P301S mutation on a C57BL/6 background, originally developed by Michel Goedert (Xu et al. 2014), obtained by own breeding. Animals were kept at 23±1° C. under standard 12 h light-dark cycle with free access to food and water. They were handled according to the EU Council Directive 2010/63/EU, the Guide for the Care and Use of Laboratory Animals (National Research Council 2011) and the guidelines of the local institutional committee. The experiments were authorized by the local authority “Regierung von Oberbayern” under application number 55.2-1-54-2532-165-13.
5 mg of the PA compound CCT020312 (EMD Millipore, Billerica, Mass., USA) was first dissolved in 100 μl sterile DMSO (AppliChem, Darmstadt, Germany) and then diluted in sterile saline (B. Braun Medical, Melsungen, Germany) to achieve a stock solution of […].
For the initial short-term single-dose target-engagement trial, wild type mice were treated on three consecutive days with either 2 mg/kg of CCT020312 or saline of the equivalent volume by intraperitoneal injection. They were sacrificed by cervical dislocation four hours after the last injection.
For the short-term ascending-dose target-engagement trial, wild type mice at 15 weeks of age were treated on three consecutive days with once daily intraperitoneal (i.p.) injections of either 1, 2, or 5 mg/kg of CCT020312 or equivalent volumes of saline.
For the long-term single-dose target-engagement trial, wild type mice (n=3) at 9 weeks of age were treated for 6 weeks with once daily i.p. injections of either 2 mg/kg of CCT020312 or equivalent volumes of saline.
Mice were sacrificed by cervical dislocation twelve hours after the last injection. Their brains were frozen on dry ice and stored at −80° C. for Western blot analysis.
Frontal cortex tissue was dissected from the fresh-frozen sample on dry ice and suspended in 750 μl of T-PER Tissue Protein Extraction Reagent (Thermo Fisher Scientific) and 1× cOmplete Protease Inhibitor Cocktail Tablets (Hoffmann-La Roche) and 1× PhosSTOP Phosphatase Inhibitor Cocktail Tablets (Hoffmann-La Roche). The tissue piece was initially ground with a pestle inside a microcentrifuge tube on ice and then homogenized by sonification with Branson Sonifier 450 Analog (Branson, now Thermo Fisher Scientific) with 10×500 ms bursts at intensity level 3 on ice. The solution was then centrifuged at 5000 g for 15 minutes at 4° C. and the supernatant retrieved. Protein concentrations were determined using the BCA kit (Thermo Fisher Scientific) by heating the samples at 60° C. for 30 minutes and measuring the absorption on the NanoDrop 2000c spectrophotometer (Thermo Fisher Scientific).
20 μg of protein (200 μg for pPERK blots) were adjusted to equal concentrations between samples by dilution with M-PER and subsequently heated at 95° C. for 5 minutes with Roti®-Load 1 (Carl Roth). SDS-PAGE was performed using Any kD™ Mini-PROTEAN® TGX™ Gels (BioRad, Berkeley, Calif., USA) in a tris-glycine running buffer. The protein was blotted onto PVDF membrane (BioRad) at 70 V for 65 minutes whilst being cooled with ice. The membrane was blocked with 1× Roti®-Block solution (Carl Roth) for 1 h and then incubated at 4° C. overnight under gentle shaking with the primary antibody (see Table 6) in TBS with 5% BSA (Cell Signaling Technology) and 0.05% TWEEN (Sigma-Aldrich). The membranes were then washed and incubated with the species specific HRP-bound secondary antibody (Vector Laboratories, Burlingame, Calif., USA) at 1:2500 in 1× Roti®-Block solution for 2 h, followed by further washing and exposure to Clarity Western ECL Substrate (BioRad) or, in the case of MC1, to Amersham™ ECL™ Prime (GE Healthcare). […]

[1] = wild type mice, 2 mg/kg i.p. once daily for 6 weeks, 2 mg/kg
[2] = wild type mice, 1, 2 or 5 mg/kg i.p. once daily, three days

In the case of `CCN(CC)CCC(=O)N1N=C(c2c(-c3ccccc3)c3cc(Br)ccc3[nH]c2=O)CC1c1ccc(Br)cc1` (stereo not drawn) [CCT020312, 6-bromo-3-[5-(4-bromo-phenyl)-1-(3-diethylamino-propionyl)-4,5-dihydro-1H-pyrazol-3-yl]-4-phenyl-1H-quinolin-2-one], the brain penetration (mice, intraperitoneal, inferred from brain pEIF2A) is reported as “enters the brain”, the “pPERK in the brain” value (wild type mice, 2 mg/kg i.p. once daily for 6 weeks, vs saline, 2 mg/kg) is reported as “increase; also recorded: significantly increased” and the “pNRF2 level in the brain” value [1] is reported as “significant increase; also recorded: significantly increased”. For the same molecule, the “total NRF2 levels in the brain” value [1] was “without significant change; also recorded: no significant upregulation”, the “total PERK level in the brain” value [1] was “no obvious change; also recorded: no significant upregulation” and the “pEIF2A in whole brain extracts” value (wild type mice, 2 mg/kg i.p. once daily, three days, vs saline) was “marked increase”. The “pNRF2 level in brain” value [2] was “dose-dependent increase”, the “total NRF2 in brain” value [2] was “without significant change” and the “phosphorylated PERK in whole brain extracts” value (wild type mice, 1, 2 or 5 mg/kg i.p. once daily, three days, vs saline) was “marked increase; also recorded: significantly increased”.
